The values below are quoted from earlier work in patent publication US20260240991A1, “METHODS OF HEMATOPOIETIC PRECURSOR CELLS MOBILIZATION” (BioLineRx Ltd., priority 2023, published 2026).

One series has as its system PB progenitor cells. As to conditions: mice.
The next series concerns CD34+ cells. As to conditions: patients with MS.

Read-outs that look alike come from different tables or passages of the source. Bridges are numbered along the chain shown (N, C = ends). [ ]: non-standard residue; d: D form. The star is where a group is joined. 2Nal = N[C@@H](Cc1ccc2ccccc2c1)C(=O)O; Benzoyl(4-F) = O=C(c1ccc(F)cc1)*; Cit = NC(=O)NCCC[C@H](N)C(=O)O

Turning to “4F-benzoyl-Arg-Arg-Nal-Cys-Tyr-Cit-Lys-DLys-Pro-Tyr-Arg-Cit-Cys-Arg-NH2 ({Benzoyl(4-F)}-RR[2Nal]CY[Cit]K[dK]PYR[Cit]CR-NH2; disulfide 4-13 (inferred)) [Motixafortide]”, the tolerability entry in the series on PB CD34+ cells (human, in vivo) was “well-tolerated”. Moreover, in the series with PB CD34+ cells (myeloma patients, 900 μg/kg), the “number of apheresis sessions required” value is on record as 1. For the same substance, in the series with PB CD34+ cells (myeloma patients, dose escalation), the “effect on mean absolute PB CD34+ cells” value is “dose-dependent increase”. In addition, the “mean PB CD34+ count” value in the series on PB CD34+ cells (myeloma patients, highest dose tested 900 μg/kg) was 2.06e+07 kg⁻¹. Also, in the series on PB CD34+ cells (myeloma patients, lower doses), the “number of apheresis sessions required” value is given as 2.25. Moreover, in the series with PB progenitor cells (agent alone), the “increase in PB progenitor cells” value is reported as no more than 10 fold and the “time of peak of PB progenitor cell increase following administration of the dose” value is 1 to 2 h. In the series with PB progenitor cells (combined with G-CSF), the “PB progenitor cell increase compared with Plerixafor and G-CSF” value was “higher than seen with a combination of Plerixafor and G-CSF”; the “increase in PB progenitor cells over controls” value was 78 fold.
In the case of “Natalizumab: recombinant humanized monoclonal antibody against d4 subunit of VLA-4”, the “maximal concentration of circulating CD34+ cells” value in the series with circulating CD34+ cells (MS patients, 72 hours following administration) is reported as 10.4 CD34+ cells/μL. In addition, the “persistence of elevation in PB CD34+ cells following administration” value in the series on circulating CD34+ cells (Zohren and Bonig) is reported as “at least 1 month”. For the same substance, in the series with CD34+ cells, the “increase in PB CD34+ cells” value was 7 fold and the “time of maximum absolute CD34+ count following treatment” value is 4 days. Further, the “increase in BM CD34+ cells” value in the series on CD34+ cells (dose-dependent) is listed as 7 fold.
